Measured values as given in patent US8822509B2, “Pain-relieving compositions and uses therefor” (priority 2006, dated 2014).
Read-outs that look alike come from different tables or passages of the source. Marks after values point to notes of the source that are not given here.

Assays:
[1] = In vitro NO release (Total NOx, modified Griess reagent assay); settings: assay of Example 9; for 1 Hour Total NOx: NOx analysis at 1 hour; for 6 Hours Total NOx: NOx analysis at 6 hours
Experimental: Briefly, HEK-MOP cells were seeded at 1×10^5 cells/mL and grown in 10 cm plates to 90% confluence. Four hours prior to experimentation, cell medium was replaced with phenol red-free DMEM. […] Following removal of each supernatant sample, it was replaced with 500 μL of phenol red-free DMEM. Samples were immediately placed on ice until NOx concentrations were quantified.
Sample aliquots (100 μL) were added to 96-well plates in duplicates. Nitrate was first converted to nitrite to determine total NOx concentrations with the addition of 100 μL aliquots of vanadium (III) chloride in 1M HCl (800 mg/100 mL) per well, followed by 100 μL aliquots of modified Griess reagent which converted nitrite to a deep purple azo derivative for spectrophotometric quantification at 560 nm using an Envision Multilabel Plate Reader (PerkinElmer Life Sciences). […] Total NOx and nitrite concentration was determined through inverse prediction against the nitrite standard curve.

[2] = test system: mechanical allodynia in rats hyporesponsive to morphine; test: Relief of mechanical allodynia (PWT) in rats hyporesponsive to morphine; assay type: in vivo
[3] = biological target: T1, μ-opioid receptors (MOP receptors) (Mus musculus, UniProt P42866); assay type: cell-based
T1 construct: expressed in transfected cells; host or cells: HEK293
T1 sequence (P42866 whole entry): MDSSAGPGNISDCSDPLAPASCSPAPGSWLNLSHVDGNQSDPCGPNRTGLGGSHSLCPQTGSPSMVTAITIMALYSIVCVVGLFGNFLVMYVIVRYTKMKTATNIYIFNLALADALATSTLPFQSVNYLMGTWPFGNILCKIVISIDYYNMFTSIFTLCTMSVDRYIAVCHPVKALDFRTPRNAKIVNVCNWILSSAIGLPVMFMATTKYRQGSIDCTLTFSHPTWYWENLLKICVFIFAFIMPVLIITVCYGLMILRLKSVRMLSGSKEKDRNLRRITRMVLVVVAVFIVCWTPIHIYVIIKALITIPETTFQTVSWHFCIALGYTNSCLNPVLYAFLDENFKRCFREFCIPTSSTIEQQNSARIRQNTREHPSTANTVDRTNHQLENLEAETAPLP

[4] = biological target: T1, μ-opioid receptors (MOP receptors); assay type: cell-based; remark: listed apart in the source
Experimental: Briefly, HEK-MOP cells were pre-incubated with 2% (2-hydroxypropyl)-β-cyclodextrin (βCD) for 1 h at 37° C. to deplete cholesterol from caveloae in the cell membrane. Cells were washed with DMEM and then utilized in the forskolin-stimulated cAMP assay as described above. […] Cells were washed with DMEM and then utilized in the forskolin-stimulated cAMP assay as described above.

[5] = test system: non-diabetic control rats; test: Tolerance development (7-day continuous s.c. infusion, 2-day washout) in non-diabetic control rats, von Frey PWT; assay type: in vivo
[6] = test system: hindpaws of control non-diabetic rats; test: Antinociception by von Frey PWT in control non-diabetic rats; assay type: in vivo, Wistar rats; settings: single s.c. bolus; morphine 1.8-21.4 μmol/kg, Compound 1 2-20 fmol/kg
Experimental: (§1) Briefly, baseline PWTs were determined for both hindpaws prior to each antinociceptive testing session in the non-diabetic control group at week 0 as well as in groups of STZ-diabetic rats at 10, 14 and 24 wks.
(§2) The PWT vs time data were normalized by subtracting the pre-dosing baseline PWT values for each individual rat to obtain ΔPWT values as follows: Normalized (Δ)PWT value=Post-treatment PWT value−PWT value prior to treatment.
(§3) ΔPWT versus time curves were then constructed. Trapezoidal integration was used to estimate ΔPWT AUC values for individual rats in the non-diabetic and STZ-diabetic rat treatment groups. ΔPWT AUC versus dose curves were constructed and GraphPad™ Prism was used to estimate the ˜ED50 values.

STZ-diabetic rats [7] = test: Behavioural side-effects in STZ-diabetic rats; assay type: in vivo; settings: Compound 1 800 pmol/kg s.c.; morphine 21 μmol/kg
[8] = test system: tactile (mechanical) allodynia in hindpaws of STZ-diabetic rats; test: Anti-allodynia by von Frey paw withdrawal thresholds (PWT) in STZ-diabetic rats; assay type: in vivo, Wistar rats
Experimental: Following this, the jugular cannula was withdrawn, the vein tied off, and the incision sutured. Following surgery, rats received antibiotic prophylaxis in the form of topical dusting powder over the sutured incisions, as well as a subcutaneous injection of benzylpenicillin (60 mg). Rats were placed in individual cages, kept warm and monitored closely during the surgical recovery period. Rats were classified as diabetic if on day 10 post-STZ administration, their daily water intake was ≧100 mL and their corresponding blood glucose levels (BGLs) were ≧15 mM.
Calibrated von Frey filaments were used to document the time course for the development and maintenance of tactile allodynia (defining symptom of PDN).
as §1, §2, §3

STZ-diabetic rats [9] = test: Tolerance development (7-day s.c. infusion, 2-day washout) in STZ-diabetic rats, von Frey PWT; assay type: in vivo
[10] = drug-naïve non-diabetic rats, Compound 1 8 fmol/kg, morphine 2.8 mmol/kg (so in the source) s.c. bolus
[11] = non-diabetic rats, second s.c. bolus after 7-day infusion and 2-day washout
[12] = week 10 post-STZ, morphine 2.8 μmol/kg s.c.

Row | SMILES | 1 Hour Total NOx [1] | 6 Hours Total NOx [1] | % of forskolin stimulated cyclic AMP response ([4]; Conc 10^−3 M) | % of forskolin stimulated cyclic AMP response ([4]; Conc 10^−4 M) | % of forskolin stimulated cyclic AMP response ([4]; Conc 10^−5 M) | % of forskolin stimulated cyclic AMP response ([4]; Conc 10^−6 M) | % of forskolin stimulated cyclic AMP response ([4]; Conc 10^−7 M) | % of forskolin stimulated cyclic AMP response ([4]; Conc 10^−8 M) | % of forskolin stimulated cyclic AMP response ([4]; Conc 10^−9 M) | % of forskolin stimulated cyclic AMP response ([4]; Conc 10^−11 M) | % of forskolin stimulated cyclic AMP response ([4]; Conc 10^−13 M) | % of forskolin stimulated cyclic AMP response ([4]; Conc 10^−14 M) | % of forskolin stimulated cyclic AMP response ([4]; Conc 10^−15 M) | % of forskolin stimulated cyclic AMP response ([4]; Conc 10^−16 M) | % of forskolin stimulated cyclic AMP response ([4]; Conc 10^−17 M) | % of forskolin stimulated cyclic AMP response ([4]; Conc 10^−18 M) | % of forskolin stimulated cyclic AMP response ([3]; Conc 10^−10 M) | % of forskolin stimulated cyclic AMP response ([3]; Conc 10^−12 M) | further results
1 | O=C(O)CCCCO[N+](=O)[O-] [Compound 33, 5-nitratopentanoic acid] | 13.14 µM | 67.69 µM |  |  |  |  |  |  |  |  |  |  |  |  |  |  |  |  | relief of mechanical allodynia ([2]; Compound 33 80 nmol/kg s.c. bolus): insignificant relief; relief of mechanical allodynia ([2]; Compound 33 120, 800 and 1200 nmol/kg s.c. bolus): significant relief of mechanical allodynia; duration of anti-allodynia ([2]; Compound 33 s.c. bolus): 2 to 3 h; time of peak anti-allodynia post-dosing ([2]; Compound 33 s.c. bolus): 0.75 to 1 h; inhibition of forskolin-stimulated cyclic AMP formation ([3]; μm to mm range (so in the source)): dose dependent inhibition
2 | Cc1c(C(=O)O)no[n+]1[O-] [Compound 6] | 0.31 µM | 0.53 µM | 8.1% | 115.0% | 138.7% | 109.7% | 110.5% | 111.2% | 88.2% | 88.0% | 128.0% | 98.2% | 79.0^a % | 149.0% | 83.9% | 60.4% | 61.5% | 91.1% | 
3 | O=C(c1no[n+]([O-])c1-c1ccccc1)C(F)(F)F [Compound 22] | 1.63 µM | 2.52 µM | 0.3% | 18.2% | 77.9% | 87.5% | 68.4% | 82.1% | 65.2% | 59.2% | 70.5% | 104.6% | 89.0% | 73.2% | 59.4^b % | 47.0% | 66.1% | 62.4% | 
4 | O=C1CCc2c1no[n+]2[O-] [Compound 16] | 1.08 µM | 1.19 µM | 18.9% | 44.3% | 105.2% | 83.5% | 119.9% | 62.2% | 125.4% | 67.1% | 98.8% | 106.3% | 97.7% | 108.3% | 100.4% | 62.4^a % | 101.3% | 59.3% | 
5 | CN1CC[C@]23c4c5ccc(O)c4O[C@H]2[C@@H](O)C=C[C@H]3[C@H]1C5 [morphine, reference compound] |  |  |  |  |  |  |  |  |  |  |  |  |  |  |  |  |  |  | time of peak antinociception post-dosing ([5]; drug-naïve non-diabetic rats, first s.c. bolus): 1 h; mean (±SEM) peak PWT [5, 10]: 16.0 (±0.4) g; mean (±SEM) peak ΔPWT [5, 10]: 4.4 (±0.4) g; tolerance after 7-day continuous s.c. infusion ([5]; non-diabetic rats): antinociceptive tolerance developed; antinociception after second bolus, naïve vs "tolerant" rats ([5]; non-diabetic rats, after 2-day washout): tolerant to the antinociceptive effects of morphine; mean (±SEM) peak PWT [5, 11]: 12 (±0.3) g; mean (±SEM) peak ΔPWT [5, 11]: 0.5 (±0.3) g; antinociception in the hindpaws of control non-diabetic rats [6]: dose-dependent antinociception; behavioural side-effects at highest dose (STZ-diabetic rats [7]): staring and sedation; time of peak effect post-dosing ([8]; morphine 1.8-21.4 μmol/kg s.c. (FIG. 2)): 30 to 60 min; anti-allodynia in the hindpaws of STZ-diabetic rats ([8]; single s.c. bolus at 10, 14, 24 wks post-STZ): dose-dependent anti-allodynia; mean (±SEM) PWT at time of peak response [8, 12]: 10.7 ± 0.6 g; reversal of mechanical allodynia at time of peak response [8, 12]: fully reversed mechanical allodynia; anti-allodynic potency ([8]; week 14 post-STZ, morphine 2.8 μmol/kg s.c.): significantly reduced; relief of mechanical allodynia at time of peak response ([8]; week 14 post-STZ, morphine 10.5 μmol/kg s.c.): completely relieved mechanical allodynia; anti-allodynic potency ([8]; week 24 post-STZ, morphine 10.5 and 21.4 μmol/kg s.c.): markedly reduced; tolerance after 7-day s.c. infusion (STZ-diabetic rats [9]; STZ-diabetic rats): antinociceptive tolerance developed; anti-allodynia after second bolus (tolerance status) (STZ-diabetic rats [9]; STZ-diabetic rats, after 2-day washout, morphine 10.5 μmol/kg, Compound 1 800 pmol/kg): insignificant anti-allodynia; time of peak anti-allodynia post-dosing (STZ-diabetic rats [9]; naïve STZ-diabetic rats, first s.c. bolus): 1 h; mean (±SEM) peak PWT (STZ-diabetic rats [9]; naïve STZ-diabetic rats, Compound 1 800 pmol/kg, morphine 10.4 μmol/kg s.c. bolus): 10.7 (±0.3) g
